Measurements taken from patent US20130310256A1, “HERBICIDAL COMPOSITIONS COMPRISING 4-AMINO-3-CHLORO-5-FLUORO-6-(4-CHLORO-2-FLUORO-3-METHOXYPHENYL) PYRIDINE-2-CARBOXYLIC ACID OR A DERIVATIVE THEREOF AND VLCFA AND LIPID SYNTHESIS INHIBITING HERBICIDES” (DOW AGROSCIENCES LLC, priority 2008, published 2013).

Columns and labels:
[1] = system: CYPES; assay: Example I: postemergence foliar-applied weed control, greenhouse; type: in vivo, Cyperus esculentus L. (yellow nutsedge)
[2] = system: CYPIR; assay: as above; type: in vivo, Cyperus iria L. (rice flatsedge); settings: foliar
Excerpt: (§1) Seeds or nutlets of the desired test plant species were planted in a soil matrix prepared by mixing a loam or sandy loam soil (e.g., 28.6 percent silt, 18.8 percent clay, and 52.6 percent sand, with a pH of about 5.8 and an organic matter content of about 1.8 percent) and calcareous grit in an 80 to 20 ratio. The soil matrix was contained in plastic pots with a volume of 1 quart and a surface area of 83.6 square centimeters (cm^2). When required to ensure good germination and healthy plants, a fungicide treatment and/or other chemical or physical treatment was applied. The plants were grown for 8-22 days in a greenhouse with an approximate 14 hr photoperiod which was maintained at about 29° C. during the day and 26° C. during the night. Nutrients (Peters Excel® 15-5-15 5-Ca 2-Mg and iron chelate) were applied in the irrigation solution as needed and water was added on a regular basis. Supplemental lighting was provided with overhead metal halide 1000-Watt lamps as necessary. The plants were employed for testing when they reached the first through fourth true leaf stage.
(§2) Treatments consisted of the acid or esters of 4-amino-3-chloro-5-fluoro-6-(4-chloro-2-fluoro-3-methoxy-phenyl)pyridine-2-carboxylic acid (Compound A), each formulated as an SC (suspension concentrate), and various herbicidal components alone and in combination. Forms of compound A were applied on an acid equivalent basis.
(§3) Other herbicidal components were applied on an active ingredient basis and included very long chain fatty acid (VLCFA) synthesis-inhibiting and fatty acid/lipid synthesis-inhibiting herbicides acetochlor (technical grade material), acetochlor+dichlormid formulated as Topnotch®, pretilachlor (technical grade material), butachlor formulated as Butachlor EC, fentrazamide formulated as Fentrazamide EC, thiobencarb formulated as Bolero® 8EC, cafenstrole formulated as Himeadow® WP or Lapost® Flowable, benfuresate formulated as Full Shot®, dimethenamid-P formulated as Outlook®, indanofan (technical grade material), flufenacet formulated as Define® DF, mefenacet (technical grade material), S-metolachlor formulated as Dual® II Magnum, pethoxamid formulated as Successor® 600, and pyroxasulfone (technical grade material).
(§4) Treatment requirements were calculated based upon the rates being tested, the concentration of active ingredient or acid equivalent in the formulation, and a 12 mL application volume at a rate of 187 L/ha.
(§5) For treatments comprised of formulated compounds, measured amounts of compounds were placed individually in 25 mL glass vials and diluted in a volume of 1.25% (v/v) Agri-Dex® crop oil concentrated to obtain 12× stock solutions. […] Application solutions were prepared by adding an appropriate amount of each stock solution (e.g., 1 mL) and diluted to the appropriate final concentrations with the addition of 10 mL of an aqueous mixture of 1.25% (v/v) crop oil concentrate so that the final spray solutions contained 1.25+/−0.05% (v/v) crop oil concentrate.
(§6) For treatments comprised of technical compounds, weighed amounts can be placed individually in 25 mL glass vials and dissolved in a volume of 97:3 v/v acetone/DMSO to obtain 12× stock solutions. […] Application solutions can be prepared by adding an appropriate amount of each stock solution (e.g., 1 mL) and diluted to the appropriate final concentrations with the addition of 10 mL of an aqueous mixture of 1.5% (v/v) crop oil concentrate so that the final spray solutions contain 1.25% (v/v) crop oil concentrate. When technical materials are used, the concentrated stock solutions can be added to the spray solutions so that the final acetone and DMSO concentrations of the application solutions are […], respectively. […]

[3] = system: LEFCH; assay: as above; type: in vivo, Leptochloa chinensis (L.) Nees (Chinese sprangletop); settings: foliar
Excerpt: as §1, §2, §3, §4, §5, §6

[4] = system: IPOHE; assay: Example IV: pre-emergence soil-applied weed control, greenhouse; type: in vivo, Ipomoea hederacea Jacq. (ivyleaf morningglory); settings: 27 DAA
Excerpt: Seeds or nutlets of the desired test plant species were planted in a soil matrix prepared by mixing a loam soil (32 percent silt, 23 percent clay, and 45 percent sand, with a pH of about 6.5 and an organic matter content of about 1.9 percent) and calcareous grit in an 80 to 20 ratio. The soil matrix was contained in plastic pots with a volume of 1 quart and a surface area of 83.6 square centimeters (cm^2).
Treatments consisted of the benzyl ester of 4-amino-3-chloro-5-fluoro-6-(4-chloro-2-fluoro-3-methoxy-phenyl)pyridine-2-carboxylic acid (compound A) formulated as an SC (suspension concentrate) and various herbicidal components alone and in combination. Forms of compound A were applied on an acid equivalent basis.
Other herbicidal components were applied on an active ingredient basis and included very long chain fatty acid (VLCFA) synthesis-inhibiting and fatty acid/lipid synthesis-inhibiting herbicides alachlor (technical grade material), dimethenamid-P formulated as Outlook®, and S-metolachlor formulated as Dual® II Magnum.
as §4
For treatments comprised of formulated compounds, measured amounts of compounds were placed individually in 25 mL glass vials and diluted in a volume of 1.25% (v/v) Agri-Dex® crop oil concentrate (COC) to obtain 12× stock solutions. […] Application solutions were prepared by adding an appropriate amount of each stock solution (e.g., 1 mL) and diluted to the appropriate final concentrations with the addition of 10 mL of an aqueous mixture of 1.25% (v/v) COC so that the final spray solutions contained 1.25% (v/v) COC.
For treatments comprised of technical compounds, weighed amounts can be placed individually in 25 mL glass vials and dissolved in a volume of 97:3 (v/v) acetone/DMSO to obtain 12× stock solutions. […] Application solutions can be prepared by adding an appropriate amount of each stock solution (e.g., 1 mL) and diluted to the appropriate final concentrations with the addition of 10 mL of an aqueous mixture of 1.5% (v/v) COC so that the final spray solutions contain 1.25% (v/v) COC. When technical materials are used, the concentrated stock solutions can be added to the spray solutions so that the final acetone and DMSO concentrations of the application solutions are 16.2% and 0.5%, respectively.
For treatments comprised of formulated and technical compounds, weighed amounts of the technical materials were placed individually in 25 mL glass vials and dissolved in a volume of 97:3 (v/v) acetone/DMSO to obtain 12× stock solutions, and measured amounts of the formulated compounds were placed individually in 25 mL glass vials and diluted in a volume of 1.5% (v/v) COC or water to obtain 12× stock solutions. […] Application solutions were prepared by adding an appropriate amount of each stock solution (e.g., 1 mL) and diluted to the appropriate final concentrations with the addition of an appropriate amount of an aqueous mixture of 1.5% (v/v) COC so that the final spray solutions contained 1.25% (v/v) COC. As required, additional water and/or 97:3 (v/v) acetone/DMSO was added to individual application solutions so that the final acetone and DMSO concentrations of the application solutions being compared were 8.1% and 0.25%, respectively.
All stock solutions and applications solutions were visually inspected for compound compatibility prior to application. Spray solutions were applied to the soil with an overhead Mandel track sprayer equipped with a 8002E nozzles calibrated to deliver 187 L/ha over an application area of 0.503 m^2 at a spray height of 18 inches (46 cm) above average pot height. Control pots were sprayed in the same manner with the solvent blank.
The treated and control pots were placed in a greenhouse and top watered as needed. […]

| SMILES | Visual Weed Control (%) - 21 DAA CYPES Obs ([1]; 305 gai/ha) [%] | Visual Weed Control (%) - 21 DAA CYPES Obs ([1]; 610 gai/ha) [%] | Visual Weed Control (%) - 21 DAA CYPES Obs ([1]; 1220 gai/ha) [%] | Visual Weed Control (%) - 21 DAA CYPIR Obs ([2]; 305 gai/ha) [%] | Visual Weed Control (%) - 21 DAA CYPIR Obs ([2]; 610 gai/ha) [%] | Visual Weed Control (%) - 21 DAA CYPIR Obs ([2]; 1220 gai/ha) [%] | Visual Weed Control (%) - 21 DAA LEFCH Obs ([3]; 305 gai/ha) [%] | Visual Weed Control (%) - 21 DAA LEFCH Obs ([3]; 610 gai/ha) [%] | Visual Weed Control IPOHE Obs ([4]; 1240 gai/ha) [%] | Visual Weed Control IPOHE Obs ([4]; 2480 gai/ha) [%] |
| --- | --- | --- | --- | --- | --- | --- | --- | --- | --- | --- |
| CCOCCN(C(=O)CCl)C(=C(C)C)c1ccccc1 [Pethoxamid, 2-Chloro-N-(2-ethoxyethyl)-N-(2-methyl-1-phenyl-1-propen-1-yl)acetamide] | 0 | 25 | 65 | 40 | 80 | 85 | 10 | 10 |  |  |
| CCc1cccc(CC)c1N(COC)C(=O)CCl [Alachlor, 2-chloro-N-(2,6-diethylphenyl)-N-(methoxymethyl)acetamide] |  |  |  |  |  |  |  |  | 5 | 13 |
